# Test results from patent US20090239841A1, “Diaryl Ureas as CB1 Antagonists” (priority 2004, published 2009).
# Molecular target: T1, hCB1 (Homo sapiens, UniProt P21554)
# T1 construct: made in house; host or cells: Sf9 insect cells (baculovirus), P2 membranes
# Assay: Agonist-induced GTP binding (GTPγ35S) assay at CB1, Example 8
# Type: biochemical
# Settings: IC50 at CB1, determined as described in Example 8; read-out: IC50
# In short: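 Antagonism read as inhibition of 1 nM CP55,940-stimulated GTPγ35S ([…]) binding, compounds at 10^−10 to 10^−5 M. Baculovirus-infected Sf9 membranes bearing hCB1 plus G-protein subunits, 60 min room-temperature incubation with 5 μM GDP. Filtration and scintillation counting; data as percent over basal.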
# T1 sequence (P21554 whole entry): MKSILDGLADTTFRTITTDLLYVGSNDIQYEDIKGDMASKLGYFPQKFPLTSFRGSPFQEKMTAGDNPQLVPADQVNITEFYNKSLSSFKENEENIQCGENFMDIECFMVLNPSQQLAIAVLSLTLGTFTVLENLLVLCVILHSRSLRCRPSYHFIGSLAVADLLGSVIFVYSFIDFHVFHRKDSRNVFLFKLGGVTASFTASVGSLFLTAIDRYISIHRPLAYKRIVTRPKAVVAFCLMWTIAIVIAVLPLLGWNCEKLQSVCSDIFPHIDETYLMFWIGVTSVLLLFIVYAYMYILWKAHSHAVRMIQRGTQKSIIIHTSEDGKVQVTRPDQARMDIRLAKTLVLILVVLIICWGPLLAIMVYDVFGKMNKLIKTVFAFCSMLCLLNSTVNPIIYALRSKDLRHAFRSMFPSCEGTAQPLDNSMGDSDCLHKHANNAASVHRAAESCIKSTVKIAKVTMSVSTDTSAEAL
row,Structure (SMILES),IC50 [nM]
1,"O=C(Nc1ccccc1)Nc1ccc(N2CCCCC2)cc1 [Compound 321, 1-phenyl-3-(4-piperidin-1-ylphenyl)urea]",< 2000
2,"Cc1ccc(NC(=O)Nc2ccc(N3CCCCC3)cc2)cc1 [Compound 322, 1-(4-methylphenyl)-3-(4-piperidin-1-ylphenyl)urea]",< 2000
3,"Cc1ccc2nc(NC(=O)Nc3ccccc3)sc2c1 [Compound 323, 1-(6-methyl-1,3-benzothiazol-2-yl)-3-phenylurea]",< 2000
4,"CCc1cccc(NC(=O)Nc2ccc(C)cc2)c1 [Compound 324, 1-(3-ethylphenyl)-3-(4-methylphenyl)urea]",< 2000
5,"CCc1ccc(NC(=O)Nc2ccc(F)cc2)cc1 [Compound 325, 1-(4-ethylphenyl)-3-(4-fluorophenyl)urea]",< 2000
6,"CC(C)c1ccc(NC(=O)Nc2ccc(F)cc2)cc1 [Compound 326, 1-(4-fluorophenyl)-3-(4-isopropylphenyl)urea]",< 2000
7,"CCCc1ccc(NC(=O)Nc2cccc(F)c2)cc1 [Compound 327, 1-(3-fluorophenyl)-3-(4-propylphenyl)urea]",< 2000
8,"CCCc1ccc(NC(=O)Nc2ccc(F)cc2)cc1 [Compound 328, 1-(4-fluorophenyl)-3-(4-propylphenyl)urea]",< 2000
9,"CCc1ccc(NC(=O)Nc2cccc(CC)c2)cc1 [Compound 329, 1-(3-ethylphenyl)-3-(4-ethylphenyl)urea]",< 2000
10,"CCc1ccc(NC(=O)Nc2cccc(Cl)c2)cc1 [Compound 330, 1-(3-chlorophenyl)-3-(4-ethylphenyl)urea]",< 2000
11,"CCc1ccc(NC(=O)Nc2ccc(C(C)C)cc2)cc1 [Compound 332, 1-(4-ethylphenyl)-3-(4-isopropylphenyl)urea]",< 2000
12,"CC(C)c1ccc(NC(=O)Nc2ccc(Cl)cc2)cc1 [Compound 333, 1-(4-chlorophenyl)-3-(4-isopropylphenyl)urea]",< 2000
13,"CCCc1ccc(NC(=O)Nc2cccc(CC)c2)cc1 [Compound 334, 1-(3-ethylphenyl)-3-(4-propylphenyl)urea]",< 2000
14,"CCCc1ccc(NC(=O)Nc2cccc(Cl)c2)cc1 [Compound 335, 1-(3-chlorophenyl)-3-(4-propylphenyl)urea]",< 2000
15,"CCCc1ccc(NC(=O)Nc2ccc(Cl)cc2)cc1 [Compound 336, 1-(4-chlorophenyl)-3-(4-propylphenyl)urea]",< 2000
16,"CC(=O)c1ccc(NC(=O)Nc2ccc(C)cc2)cc1 [Compound 338, 1-(4-acetylphenyl)-3-(4-methylphenyl)urea]",< 2000
17,"CC(=O)c1ccc(NC(=O)Nc2cccc(F)c2)cc1 [Compound 339, 1-(4-acetylphenyl)-3-(3-fluorophenyl)urea]",< 2000
18,"CC(=O)c1ccc(NC(=O)Nc2ccc(F)cc2)cc1 [Compound 340, 1-(4-acetylphenyl)-3-(4-fluorophenyl)urea]",< 2000
19,"CCc1cccc(NC(=O)Nc2ccc(C(C)=O)cc2)c1 [Compound 341, 1-(4-acetylphenyl)-3-(3-ethylphenyl)urea]",< 2000
20,"CC(=O)c1ccc(NC(=O)Nc2cccc(Cl)c2)cc1 [Compound 342, 1-(4-acetylphenyl)-3-(3-chlorophenyl)urea]",< 2000
21,"CC(=O)c1ccc(NC(=O)Nc2ccc(Cl)cc2)cc1 [Compound 344, 1-(4-acetylphenyl)-3-(4-chlorophenyl)urea]",< 2000
22,"CC(C)c1ccc(NC(=O)Nc2ccc(C#N)cc2)cc1 [Compound 345, 1-(4-cyanophenyl)-3-(4-isopropylphenyl)urea]",< 2000
23,"CC(C)c1ccc(NC(=O)Nc2cccc(C#N)c2)cc1 [Compound 346, 1-(3-cyanophenyl)-3-(4-isopropylphenyl)urea]",< 2000

row,Structure (SMILES),IC50 [nM]
1,"CC(=O)c1cccc(NC(=O)Nc2ccc(C(C)C)cc2)c1 [Compound 347, 1-(3-acetylphenyl)-3-(4-isopropylphenyl)urea]",< 2000
2,"CC(=O)c1ccc(NC(=O)Nc2ccc(C(C)C)cc2)cc1 [Compound 348, 1-(4-acetylphenyl)-3-(4-isopropylphenyl)urea]",< 2000
3,"CCCc1ccc(NC(=O)Nc2ccc(C#N)cc2)cc1 [Compound 349, 1-(4-cyanophenyl)-3-(4-propylphenyl)urea]",< 2000
4,"CCCc1ccc(NC(=O)Nc2cccc(C#N)c2)cc1 [Compound 350, 1-(3-cyanophenyl)-3-(4-propylphenyl)urea]",< 2000
5,"CCCc1ccc(NC(=O)Nc2cccc(C(C)=O)c2)cc1 [Compound 351, 1-(3-acetylphenyl)-3-(4-propylphenyl)urea]",< 2000
6,"CCCc1ccc(NC(=O)Nc2ccc(C(C)=O)cc2)cc1 [Compound 352, 1-(4-acetylphenyl)-3-(4-propylphenyl)urea]",< 2000
7,"CC(=O)c1ccc(NC(=O)Nc2cccc(Br)c2)cc1 [Compound 353, 1-(4-acetylphenyl)-3-(3-bromophenyl)urea]",< 2000
8,"CCOc1cccc(NC(=O)Nc2ccc(C)cc2)c1 [Compound 354, 1-(3-ethoxyphenyl)-3-(4-methylphenyl)urea]",< 2000
9,"CCOc1cccc(NC(=O)Nc2cccc(F)c2)c1 [Compound 355, 1-(3-ethoxyphenyl)-3-(3-fluorophenyl)urea]",< 2000
10,"CCOc1cccc(NC(=O)Nc2ccc(F)cc2)c1 [Compound 356, 1-(3-ethoxyphenyl)-3-(4-fluorophenyl)urea]",< 2000
11,"CCOc1ccc(NC(=O)Nc2cccc(F)c2)cc1 [Compound 357, 1-(4-ethoxyphenyl)-3-(3-fluorophenyl)urea]",< 2000
12,"CCOc1ccc(NC(=O)Nc2ccc(F)cc2)cc1 [Compound 358, 1-(4-ethoxyphenyl)-3-(4-fluorophenyl)urea]",< 2000
13,"COCc1ccc(NC(=O)Nc2ccc(C)cc2)cc1 [Compound 359, 1-[4-(methoxymethyl)phenyl]-3-(4-methylphenyl)urea]",< 2000
14,"COCc1ccc(NC(=O)Nc2cccc(F)c2)cc1 [Compound 360, 1-(3-fluorophenyl)-3-[4-(methoxymethyl)phenyl]urea]",< 2000
15,"CCCOc1ccc(NC(=O)Nc2cccc(F)c2)cc1 [Compound 361, 1-(3-fluorophenyl)-3-(4-propoxyphenyl)urea]",< 2000
16,"CCCOc1ccc(NC(=O)Nc2ccc(F)cc2)cc1 [Compound 362, 1-(4-fluorophenyl)-3-(4-propoxyphenyl)urea]",< 2000
17,"CC(C)Oc1cccc(NC(=O)Nc2cccc(F)c2)c1 [Compound 363, 1-(3-fluorophenyl)-3-(3-isopropoxyphenyl)urea]",< 2000
18,"CC(C)Oc1cccc(NC(=O)Nc2ccc(F)cc2)c1 [Compound 364, 1-(4-fluorophenyl)-3-(3-isopropoxyphenyl)urea]",< 2000
19,"Cc1cccc(NC(=O)Nc2ccc(OC(C)C)cc2)c1 [Compound 365, 1-(4-isopropoxyphenyl)-3-(3-methylphenyl)urea]",< 2000
20,"Cc1ccc(NC(=O)Nc2ccc(OC(C)C)cc2)cc1 [Compound 366, 1-(4-isopropoxyphenyl)-3-(4-methylphenyl)urea]",< 2000
21,"CC(C)Oc1ccc(NC(=O)Nc2cccc(F)c2)cc1 [Compound 367, 1-(3-fluorophenyl)-3-(4-isopropoxyphenyl)urea]",< 2000
22,"CC(C)Oc1ccc(NC(=O)Nc2ccc(F)cc2)cc1 [Compound 368, 1-(4-fluorophenyl)-3-(4-isopropoxyphenyl)urea]",< 2000
